Assay results: patent US20250312352A1, “GLP-1R MODULATING COMPOUNDS” (Gilead Sciences, Inc., priority 2021, published 2025)

What follows are compounds tested against T1, GLP-1R (Homo sapiens, UniProt P43220) (assay: GLP-1R activation cAMP assay (Assay 1 or Assay 2)). Details: cAMP increase in CHO cells stably expressing GLP-1R; compounds run on one of the two cAMP assays.
T1 construct: host or cells: CHO cells
Format: cell-based
Summary of the method: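 EC50 values come from a sigmoidal fit of HTRF-detected cAMP rise versus log agonist concentration. GLP-1R-expressing CHO cells, equilibrated 1 h at 37 °C in HBSS with HEPES and BSA, received a 10-point compound dose series for 30 min before detection.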

T1 sequence (P43220 24-463): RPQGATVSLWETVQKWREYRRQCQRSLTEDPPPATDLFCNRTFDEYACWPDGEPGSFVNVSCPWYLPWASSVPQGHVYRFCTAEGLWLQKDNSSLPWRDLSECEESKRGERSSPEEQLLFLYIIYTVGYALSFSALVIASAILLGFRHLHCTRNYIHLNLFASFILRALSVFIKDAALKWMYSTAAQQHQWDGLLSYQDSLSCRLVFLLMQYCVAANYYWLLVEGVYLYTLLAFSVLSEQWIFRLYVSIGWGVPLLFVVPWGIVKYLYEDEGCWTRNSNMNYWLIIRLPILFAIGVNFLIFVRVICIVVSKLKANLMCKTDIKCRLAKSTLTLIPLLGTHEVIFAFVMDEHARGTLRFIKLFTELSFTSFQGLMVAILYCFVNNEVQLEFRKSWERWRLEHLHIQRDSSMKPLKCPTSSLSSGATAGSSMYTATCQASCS

Row | Compound | EC50 [nM]
1 | CCOc1nnc(COc2nc(-c3cc(F)c(Cc4nc5ccc(C(=O)O)cc5n4[C@@H]4COCC4(C)C)cc3C)ccc2F)s1 [Example 262, (S)-1-(4,4-dimethyltetrahydrofuran-3-yl)-2-(4-(6-((5-ethoxy-1,3,4-thiadiazol-2-yl)methoxy)-5-fluoropyridin-2-yl)-2-fluoro-5-methylbenzyl)-1H-benzo[d]imidazole-6-carboxylic acid] | 0.134
2 | CCOc1nnc(COc2cccc(-c3cc(F)c(Cc4nc5ccc(C(=O)O)cc5n4[C@@H]4COCC4(C)C)c(F)c3F)n2)s1 [Example 263, (S)-1-(4,4-dimethyltetrahydrofuran-3-yl)-2-(4-(6-((5-ethoxy-1,3,4-thiadiazol-2-yl)methoxy)pyridin-2-yl)-2,3,6-trifluorobenzyl)-1H-benzo[d]imidazole-6-carboxylic acid] | 0.131
3 | CCOc1nnc(COc2nc(-c3cc(F)c(Cc4nc5ccc(C(=O)O)cc5n4[C@@H]4COCC4(C)C)c(F)c3F)ccc2F)s1 [Example 265, (S)-1-(4,4-dimethyltetrahydrofuran-3-yl)-2-(4-(6-((5-ethoxy-1,3,4-thiadiazol-2-yl)methoxy)-5-fluoropyridin-2-yl)-2,3,6-trifluorobenzyl)-1H-benzo[d]imidazole-6-carboxylic acid] | 0.152
4 | CCOc1nnc(COc2cccc(-c3cc(F)c(Cc4nc5ccc(C(=O)O)cc5n4CC4(CF)CC4)cc3F)n2)s1 [Example 266, 2-(4-(6-((5-ethoxy-1,3,4-thiadiazol-2-yl)methoxy)pyridin-2-yl)-2,5-difluorobenzyl)-1-((1-(fluoromethyl)cyclopropyl)methyl)-1H-benzo[d]imidazole-6-carboxylic acid] | 0.367
5 | CC1(C)COC[C@H]1n1c(Cc2cc(F)c(-c3ccnc(OCc4sc(C#N)cc4F)n3)cc2F)nc2ccc(C(=O)O)cc21 [Example 267, 2-[[4-[2-[(5-cyano-3-fluoro-2-thienyl)methoxy]pyrimidin-4-yl]-2,5-difluoro-phenyl]methyl]-3-[(3S)-4,4-dimethyltetrahydrofuran-3-yl]benzimidazole-5-carboxylic acid] | 0.401
6 | COc1nnc(COc2nc(-c3cc(F)c(Cc4nc5ccc(C(=O)O)cc5n4CC4(CF)CC4)cc3F)ccc2F)s1 [Example 268, 2-(2,5-difluoro-4-(5-fluoro-6-((5-methoxy-1,3,4-thiadiazol-2-yl)methoxy)pyridin-2-yl)benzyl)-1-((1-(fluoromethyl)cyclopropyl)methyl)-1H-benzo[d]imidazole-6-carboxylic acid] | 0.762
7 | COc1nnc(COc2nc(-c3cc(F)c(Cc4nc5ccc(C(=O)O)cc5n4[C@@H]4COCC4(C)C)c(F)c3F)ccc2F)s1 [Example 270, (S)-1-(4,4-dimethyltetrahydrofuran-3-yl)-2-(2,3,6-trifluoro-4-(5-fluoro-6-((5-methoxy-1,3,4-thiadiazol-2-yl)methoxy)pyridin-2-yl)benzyl)-1H-benzo[d]imidazole-6-carboxylic acid] | 0.191
8 | COc1nnc(COc2cccc(-c3cc(F)c(Cc4nc5ccc(C(=O)O)cc5n4CC4(CF)CC4)c(F)c3F)n2)s1 [Example 271, 1-((1-(fluoromethyl)cyclopropyl)methyl)-2-(2,3,6-trifluoro-4-(6-((5-methoxy-1,3,4-thiadiazol-2-yl)methoxy)pyridin-2-yl)benzyl)-1H-benzo[d]imidazole-6-carboxylic acid] | 0.897
9 | COc1nnc(COc2cccc(-c3cc(F)c(Cc4nc5ccc(C(=O)O)cc5n4CC4(CF)CC4)cc3F)n2)s1 [Example 272, 2-(2,5-difluoro-4-(6-((5-methoxy-1,3,4-thiadiazol-2-yl)methoxy)pyridin-2-yl)benzyl)-1-((1-(fluoromethyl)cyclopropyl)methyl)-1H-benzo[d]imidazole-6-carboxylic acid] | 1.9
10 | COc1nnc(COc2cccc(-c3cc(F)c(Cc4nc5ccc(C(=O)O)cc5n4[C@@H]4COCC4(C)C)c(F)c3F)n2)s1 [Example 273, (S)-1-(4,4-dimethyltetrahydrofuran-3-yl)-2-(2,3,6-trifluoro-4-(6-((5-methoxy-1,3,4-thiadiazol-2-yl)methoxy)pyridin-2-yl)benzyl)-1H-benzo[d]imidazole-6-carboxylic acid] | 0.144
11 | Cn1cc(C#Cc2cnc(COc3cccc(-c4cc(F)c(Cc5nc6c(F)cc(C(=O)O)cc6n5CC5(CF)CC5)cc4F)n3)c(F)c2)cn1 [Example 274, 2-(2,5-difluoro-4-(6-((3-fluoro-5-((1-methyl-1H-pyrazol-4-yl)ethynyl)pyridin-2-yl)methoxy)pyridin-2-yl)benzyl)-4-fluoro-1-((1-(fluoromethyl)cyclopropyl)methyl)-1H-benzo[d]imidazole-6-carboxylic acid] | 0.196
12 | COc1nnc(COc2cccc(-c3cc(F)c(Cc4nc5c(F)cc(C(=O)O)cc5n4CC4(C(F)F)CC4)cc3F)n2)s1 [Example 275, 2-(2,5-difluoro-4-(6-((5-methoxy-1,3,4-thiadiazol-2-yl)methoxy)pyridin-2-yl)benzyl)-1-((1-(difluoromethyl)cyclopropyl)methyl)-4-fluoro-1H-benzo[d]imidazole-6-carboxylic acid] | 0.372
13 | COc1nnc(COc2cccc(-c3cc(F)c(Cc4nc5ccc(C(=O)O)cc5n4CC4(C(F)F)CC4)cc3F)n2)s1 [Example 276, 2-(2,5-difluoro-4-(6-((5-methoxy-1,3,4-thiadiazol-2-yl)methoxy)pyridin-2-yl)benzyl)-1-((1-(difluoromethyl)cyclopropyl)methyl)-1H-benzo[d]imidazole-6-carboxylic acid] | 1.31
14 | COc1ncc(C#Cc2ccc(COc3cccc(-c4cc(F)c(Cc5nc6ccc(C(=O)O)cc6n5C[C@@H]5CCO5)cc4F)n3)c(F)n2)s1 [Example 277, (S)-2-(2,5-difluoro-4-(6-((2-fluoro-6-((2-methoxythiazol-5-yl)ethynyl)pyridin-3-yl)methoxy)pyridin-2-yl)benzyl)-1-(oxetan-2-ylmethyl)-1H-benzo[d]imidazole-6-carboxylic acid] | 0.312
15 | Cn1nncc1C#Cc1ccc(COc2cccc(-c3cc(F)c(Cc4nc5ccc(C(=O)O)cc5n4C[C@@H]4CCO4)cc3F)n2)c(F)n1 [Example 278, (S)-2-(2,5-difluoro-4-(6-((2-fluoro-6-((1-methyl-1H-1,2,3-triazol-5-yl)ethynyl)pyridin-3-yl)methoxy)pyridin-2-yl)benzyl)-1-(oxetan-2-ylmethyl)-1H-benzo[d]imidazole-6-carboxylic acid] | 0.617
16 | Cn1nncc1C#Cc1ccc(COc2cccc(-c3cc(F)c(Cc4nc5ccc(C(=O)O)cc5n4C4COCC4(C)C)cc3F)n2)c(F)c1 (centres unmarked) [Example 279, 2-(2,5-difluoro-4-(6-((2-fluoro-4-((1-methyl-1H-1,2,3-triazol-5-yl)ethynyl)benzyl)oxy)pyridin-2-yl)benzyl)-1-(4,4-dimethyltetrahydrofuran-3-yl)-1H-benzo[d]imidazole-6-carboxylic acid] | 0.955
17 | COc1nnc(COc2cccc(-c3cc(F)c(Cc4nc5c(F)cc(C(=O)O)cc5n4CC4(CF)CC4)c(F)c3F)n2)s1 [Example 280, 4-fluoro-1-((1-(fluoromethyl)cyclopropyl)methyl)-2-(2,3,6-trifluoro-4-(6-((5-methoxy-1,3,4-thiadiazol-2-yl)methoxy)pyridin-2-yl)benzyl)-1H-benzo[d]imidazole-6-carboxylic acid] | 0.067
18 | COc1nnc(COc2cccc(-c3cc(F)c(Cc4nc5ccc(C(=O)O)cc5n4C4COCC4(C)C)c(F)c3F)n2)s1 (centres unmarked) [Example 282, 1-(4,4-dimethyltetrahydrofuran-3-yl)-2-(2,3,6-trifluoro-4-(6-((5-methoxy-1,3,4-thiadiazol-2-yl)methoxy)pyridin-2-yl)benzyl)-1H-benzo[d]imidazole-6-carboxylic acid] | 0.311
19 | Cc1nnc(COc2cccc(-c3cc(F)c(Cc4nc5c(F)cc(C(=O)O)cc5n4[C@@H]4COCC4(C)C)cc3F)n2)s1 [Example 283, (S)-2-(2,5-difluoro-4-(6-((5-methyl-1,3,4-thiadiazol-2-yl)methoxy)pyridin-2-yl)benzyl)-1-(4,4-dimethyltetrahydrofuran-3-yl)-4-fluoro-1H-benzo[d]imidazole-6-carboxylic acid] | 0.109
20 | O=C(O)c1ccc2nc(Cc3cc(F)c(-c4cccc(OCc5ncc(C#Cc6ccc(F)cc6)cc5F)n4)cc3F)n(C[C@@H]3CCO3)c2c1 [Example 284, (S)-2-(2,5-difluoro-4-(6-((3-fluoro-5-((4-fluorophenyl)ethynyl)pyridin-2-yl)methoxy)pyridin-2-yl)benzyl)-1-(oxetan-2-ylmethyl)-1H-benzo[d]imidazole-6-carboxylic acid] | 0.183
21 | O=C(O)c1ccc2nc(Cc3cc(F)c(-c4cccc(OCc5ncc(C#Cc6cnsc6)cc5F)n4)cc3F)n(C[C@@H]3CCO3)c2c1 [Example 285, (S)-2-(2,5-difluoro-4-(6-((3-fluoro-5-(isothiazol-4-ylethynyl)pyridin-2-yl)methoxy)pyridin-2-yl)benzyl)-1-(oxetan-2-ylmethyl)-1H-benzo[d]imidazole-6-carboxylic acid] | 0.126
22 | O=C(O)c1ccc2nc(Cc3cc(F)c(-c4cccc(OCc5ncc(C#Cc6cn[nH]c6)cc5F)n4)cc3F)n(C[C@@H]3CCO3)c2c1 [Example 286, (S)-2-(4-(6-((5-((1H-pyrazol-4-yl)ethynyl)-3-fluoropyridin-2-yl)methoxy)pyridin-2-yl)-2,5-difluorobenzyl)-1-(oxetan-2-ylmethyl)-1H-benzo[d]imidazole-6-carboxylic acid] | 0.042
23 | O=C(O)c1ccc2nc(Cc3cc(F)c(-c4cccc(OCc5ccc(C#Cc6cnn(C(F)F)c6)cc5F)n4)cc3F)n(C[C@@H]3CCO3)c2c1 [Example 287, (S)-2-(4-(6-((4-((1-(difluoromethyl)-1H-pyrazol-4-yl)ethynyl)-2-fluorobenzyl)oxy)pyridin-2-yl)-2,5-difluorobenzyl)-1-(oxetan-2-ylmethyl)-1H-benzo[d]imidazole-6-carboxylic acid] | 0.185
